Laboratory results as given in patent EP0920324B1, “PURE BIOLOGICALLY ACTIVE COLISTIN, ITS COMPONENTS AND A COLISTIN FORMULATION FOR TREATMENT OF PULMONARY INFECTIONS” (PATHOGENESIS CORPORATION, priority 1996, dated 1998).
Where a SMILES comes first, the peptide text is derived from it. Bridges are numbered along the chain shown (N, C = ends). [ ]: non-standard residue; d: D form. The star is where a group is joined. Octanoyl(6-Me) = CCC(C)CCCCC(=O)*; Dab = NCC[CH](N)C(=O)O

Legend:
[1] = Gravimetric titration with HCl to determine pKa
Experimental: 107 mg of dry free base was suspended in 10.7 ml of deionized water and 1.21 M HCl was added under constant measurement of pH.
In order to determine the pKa of colistin component IV by titration, 107 mg of dry free base was suspended in 10.7 ml of deionized water in a 20 ml glass screwcap vial and stirred by magnetic stirrer. A calibrated Beckman Phi-10 pH meter with a Futura Plus combination electrode was placed in the suspension and the pH of the solution was monitored during the addition of 1.21 M HCl.

Pseudomonas aeruginosa = assay: Time kill kinetic studies (bactericidal activity); assay type: cell-based
Experimental: Henry D. Isenberg, ASM, Washington, DC (1992). The exact procedure is described in Example 14.
Briefly, tests were similar to those used for determining MICs, except that the final test volume was larger (10 mL) to allow sampling at various time points. […] Cultures were incubated at 37°C. At initial set-up and at various time-points, cultures were plated, with or without further dilution, onto sheep blood agar plates. Plates were incubated for 18-24 hours, and the number of CFU/mL was determined and plotted to determine the percentage of surviving organisms and the time required to achieve 99.9% killing. Results are seen in Figure 15.
Colony-forming unit (CFU) per ml were determined and plotted against drug exposure time in hours.
Time kill kinetic studies were performed as described in (Antimicrobial Susceptibility Testing, Section 5.16. Tests to assess bactericidal activity, in Clinical Microbiology Procedure Handbook (supra).
Tests were set in the same way used for determining MICs (Example 13), except that the final test volume was larger (10 mL) to allow sampling at various time points. Cultures were incubated at 37°C. At initial set-up and at various desired time-points, cultures were sampled and plated (with or without further dilution) onto sheep blood agar plates. Plates were incubated for 18-24 hours, and the number of CFU/mL was determined and plotted to determine the percentage of surviving organisms and the time required to achieve 99.9% killing.

[2] = Solution pH monitored over time after dissolution; assay type: physicochemical; settings: 10.0, 15.0 and 20.0 mg/ml in water
Experimental: These values correspond to concentrations of 3.7 mg/ml, 5.6 mg/ml and 7.4 mg/ml colistin base equivalent. Solution pH was monitored continuously at various times from 1 minute to 180 minutes and pH values and times were recorded.
Determination of component IV stability at physiologic pH was made by dissolving purified colistin component IV sulfate or hydrochloride at a concentration of 20 mg/ml in sterile water containing 120 mM NaCl. The solution was mixed and pH was monitored. A 10 N NaOH solution was used to adjust the solution pH to 6.95-7.00. Results are seen in Figure 16.
These values correspond to concentrations of 3.7 mg/ml, 5.6 mg/ml and 7.4 mg/ml colistin base equivalent. Solution pH was then monitored continuously using a Beckman Phi-10 pH meter fitted with a Beckman Futura Plus combination electrode calibrated at pH 4.0 and 7.0 as per manufacturer's instructions prior to use. At various times from 1 minute to 180 minutes, pH values and times were recorded.

[3] = Jet nebulization (Pari LC Jet nebulizer), aerosol characterized by laser diffraction particle analyzer; assay type: physicochemical
Experimental: Colistin component IV sulfate was dissolved in 120 mM sodium chloride, and the pH was adjusted to 7.0 with 1 molar sodium hydroxide.
Four ml of solution to be nebulized was placed in a Pari LC Jet nebulizer fitted with a Pulmonaide Compressor (DeVilbiss Model 5650D) with an air flow rate of 4-6 liters/minute. Aerosols generated are characterized by passing through a laser diffraction particle analyzer (Malvern Mastersizer X). Each formulation was analyzed multiple times to determine reproducibility of results, which were expressed as total obscuration time, mass median average diameter, and respirable fraction.
Results are shown in Figure 18, which is a comparison of the-times required for aerosolization of 4 mL of the three solutions. The two drug solutions were analyzed three times, and saline was analyzed four times. Bars show standard deviations of measurements.
Colistin component IV sulfate or hydrochloride formulations were as described above in Example 15.
Four ml of solution to be nebulized was placed in a Pari LC Jet nebulizer fitted with a Pulmonaide Compressor, DeVilbiss Model 5650D, with an air flow rate of 4-6 liters/minute. Aerosol generated was characterized by passing through a Malvern Mastersizer X laser diffraction particle analyzer. Each formulation was analyzed multiple times to determine reproducibility of results, which were expressed as total obscuration time, mass median particle diameter, and respirable fraction.
Mass median particle diameters were expressed as average ± standard deviation (n) for aerosols.
Average respirable fractions were calculated as average percentage of particles ranging from 1 micron to 6 microns in diameter within the aerosol over time.

[4] = human, in vivo; cited from earlier work
[5] = human, in vivo, iv; cited from earlier work
[6] = human, in vivo, 1 h; cited from earlier work
[7] = average ± standard deviation, n = 3, 20 mg/ml solutions

Row | Compound | pKa ([1]; free base suspended in deionized water, titrated with 1.21 M HCl) | pKa ([1]; water) | eradication of the Pseudomonas aeruginosa organism (Pseudomonas aeruginosa; 8 µg/mL, at 4 hours of testing) | killing of test organism (Pseudomonas aeruginosa; 16 µg/mL, at 3 hours) | time at which over 5 logs killing was shown (Pseudomonas aeruginosa; 64µg/mL) | concentration required for a similar level of killing (over 5 logs within 2 hours) (Pseudomonas aeruginosa; freshly dissolved) | pH of solution within 3 minutes [2] | mean aerosolization time ([3]; 4 mL of 20 mg/ml solution, colistin component IV sulfate in 120 mM NaCl, isotonic, pH balanced, colimycin in 1/4 N saline, n = 3) | average respirable fraction (particles ranging from 1 micron to 6 microns in diameter) [3, 7] | mass median particle diameter of the aerosol [3, 7] | patients reporting bronchoconstriction response as chest tightness [4] | occurrence of nephrotoxicity symptoms [5] | occurrence of neurotoxicity symptoms [5] | drug converted to colistin in an hour [6]
1 | CCC(C)CCCCC(=O)NC(CCN)C(=O)NC(C(=O)NC(CCN)C(=O)NC1CCNC(=O)C(C(C)O)NC(=O)C(CCN)NC(=O)C(CCN)NC(=O)C(CC(C)C)NC(=O)C(CC(C)C)NC(=O)C(CCN)NC1=O)C(C)O (centres unmarked) [colistin component IV] ({Octanoyl(6-Me)}-[Dab]T[Dab][Dab][Dab]LL[Dab][Dab]T; lactam 4-C; configuration not given here) | approximately 9.0 | ~9 | – | – | – | – | – | – | – | – | – | – | – | –
2 | colimycin | – | – | did not, even at 4 hours of testing, eradicate the Pseudomonas aeruginosa organism | over 5 logs | 1.5 hours | 32 µg/ml | > 7.5 | 10.53 min | 58.77 ± 2.03 percentage | 4.11 ± 0.29 microns | approximately 65% | about 5 % cases | about 29 % cases | ~3%
